“And” between values parts separate entries of the source, which are not always exact repeats. Equal values may be shown once.
Tests used:
Test in all cases: KINATIV assay
Assay type in all cases: cell-based
Details in all cases: 1 μM, 90 minutes, BCWM.1 cells
[1] = molecular target: RSK4 domain1 (Homo sapiens (Human), UniProt Q9UK32)
Procedure, shortened: (§1)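 Duplicate compound samples were compared with duplicate or quadruplicate controls. After harvesting and lysis, cells' lysates were probe-labeled (ATP-biotin), and kinase labeling was quantitated by ACTIVX.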

[2] = system: AMPKa1, AMPKa2
Procedure, shortened: as §1

[3] = system: JNK1, JNK2, JNK3
Procedure, shortened: as §1

[4] = molecular target: CDC2 (Homo sapiens (Human), UniProt P06493)
Procedure, shortened: as §1

[5] = molecular target: NEK9 (Homo sapiens (Human), UniProt Q8TD19)
Procedure, shortened: as §1

[6] = molecular target: IRE1 (Homo sapiens (Human), UniProt O75460)
Procedure, shortened: as §1

[7] = molecular target: MARK3 (Homo sapiens (Human), UniProt P27448)
Procedure, shortened: as §1

[8] = system: MST1, MST2
Procedure, shortened: as §1

[9] = molecular target: NEK3 (Homo sapiens (Human), UniProt P51956)
Procedure, shortened: as §1

[10] = molecular target: MAP3K4 (Homo sapiens (Human), UniProt Q9Y6R4)
Procedure, shortened: as §1

[11] = system: RSK1, RSK2, RSK3 domain1
Procedure, shortened: as §1

[12] = molecular target: PKD2 (Homo sapiens (Human), UniProt Q9BZL6)
Procedure, shortened: as §1

[13] = molecular target: PYK2 (Homo sapiens (Human), UniProt Q14289)
Procedure, shortened: as §1

[14] = molecular target: MASTL (Homo sapiens (Human), UniProt Q96GX5)
Procedure, shortened: as §1

[15] = molecular target: EphB1 (Homo sapiens (Human), UniProt P54762)
Procedure, shortened: as §1

[16] = molecular target: FRK (Homo sapiens (Human), UniProt P42685)
Procedure, shortened: as §1

[17] = molecular target: MAP3K5 (Homo sapiens (Human), UniProt Q99683)
Procedure, shortened: as §1

[18] = molecular target: STLK5 (Homo sapiens (Human), UniProt Q7RTN6)
Procedure, shortened: as §1

[19] = molecular target: EphB2 (Homo sapiens (Human), UniProt P29323)
Procedure, shortened: as §1

[20] = molecular target: IKKa (Homo sapiens (Human), UniProt O15111)
Procedure, shortened: as §1

[21] = molecular target: p38b (Homo sapiens (Human), UniProt Q15759)
Procedure, shortened: as §1

[22] = molecular target: NEK4 (Homo sapiens (Human), UniProt P51957)
Procedure, shortened: as §1

[23] = molecular target: PAN3 (Homo sapiens (Human), UniProt Q58A45)
Procedure, shortened: as §1

[24] = molecular target: PIP5K3 (Homo sapiens (Human), UniProt Q9Y2I7)
Procedure, shortened: as §1

[25] = molecular target: MAP2K6 (Homo sapiens (Human), UniProt P52564)
Procedure, shortened: as §1

[26] = molecular target: CK2a2 (Homo sapiens (Human), UniProt P19784)
Procedure, shortened: as §1

[27] = molecular target: RSK3 (Homo sapiens (Human), UniProt Q15349)
Procedure, shortened: as §1

[28] = molecular target: FRAP (Homo sapiens (Human), UniProt P42345)
Procedure, shortened: as §1

[29] = molecular target: ROCK1 (Homo sapiens (Human), UniProt Q13464)
Procedure, shortened: as §1

[30] = molecular target: BLK (Homo sapiens (Human), UniProt P51451)
Procedure, shortened: as §1

[31] = molecular target: CaMK1d (Homo sapiens (Human), UniProt Q8IU85)
Procedure, shortened: as §1

[32] = molecular target: KHS1 (Homo sapiens (Human), UniProt Q9Y4K4)
Procedure, shortened: as §1

[33] = molecular target: BRAF (Homo sapiens (Human), UniProt P15056)
Procedure, shortened: as §1

[34] = molecular target: MAP2K7 (Homo sapiens (Human), UniProt O14733)
Procedure, shortened: as §1

[35] = system: NEK6, NEK7
Procedure, shortened: as §1

[36] = molecular target: TAK1 (Homo sapiens (Human), UniProt O43318)
Procedure, shortened: as §1

[37] = molecular target: MST2 (Homo sapiens (Human), UniProt Q13188)
Procedure, shortened: as §1

[38] = molecular target: CSK (Homo sapiens (Human), UniProt P41240)
Procedure, shortened: as §1

[39] = system: Wnk1, Wnk2, Wnk3
Procedure, shortened: as §1

[40] = system: AurA, AurB, AurC
Procedure, shortened: as §1

Sequence of MASTL (Q96GX5 whole entry): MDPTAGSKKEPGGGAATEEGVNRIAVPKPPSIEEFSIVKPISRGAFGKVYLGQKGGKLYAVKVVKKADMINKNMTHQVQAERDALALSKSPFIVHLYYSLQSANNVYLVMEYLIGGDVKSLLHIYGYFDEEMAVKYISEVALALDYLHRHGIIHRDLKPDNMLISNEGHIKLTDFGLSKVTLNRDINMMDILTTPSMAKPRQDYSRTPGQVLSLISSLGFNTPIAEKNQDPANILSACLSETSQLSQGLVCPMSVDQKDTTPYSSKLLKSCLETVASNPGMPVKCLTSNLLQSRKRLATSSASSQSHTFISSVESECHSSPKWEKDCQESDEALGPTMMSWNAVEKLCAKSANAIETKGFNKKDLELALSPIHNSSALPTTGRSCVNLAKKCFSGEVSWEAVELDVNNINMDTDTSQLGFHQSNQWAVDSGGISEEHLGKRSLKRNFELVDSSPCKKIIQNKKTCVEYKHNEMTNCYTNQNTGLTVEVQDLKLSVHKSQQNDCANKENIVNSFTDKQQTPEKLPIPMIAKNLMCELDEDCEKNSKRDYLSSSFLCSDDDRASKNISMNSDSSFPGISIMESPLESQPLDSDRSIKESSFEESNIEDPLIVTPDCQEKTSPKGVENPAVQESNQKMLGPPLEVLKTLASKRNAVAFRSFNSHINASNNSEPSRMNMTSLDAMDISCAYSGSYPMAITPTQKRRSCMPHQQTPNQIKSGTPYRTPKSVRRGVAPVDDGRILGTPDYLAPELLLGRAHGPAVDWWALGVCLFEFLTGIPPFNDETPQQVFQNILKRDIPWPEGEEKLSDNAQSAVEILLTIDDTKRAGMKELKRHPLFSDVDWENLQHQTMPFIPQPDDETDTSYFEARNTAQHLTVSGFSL
Sequence of MAP2K6 (P52564 whole entry): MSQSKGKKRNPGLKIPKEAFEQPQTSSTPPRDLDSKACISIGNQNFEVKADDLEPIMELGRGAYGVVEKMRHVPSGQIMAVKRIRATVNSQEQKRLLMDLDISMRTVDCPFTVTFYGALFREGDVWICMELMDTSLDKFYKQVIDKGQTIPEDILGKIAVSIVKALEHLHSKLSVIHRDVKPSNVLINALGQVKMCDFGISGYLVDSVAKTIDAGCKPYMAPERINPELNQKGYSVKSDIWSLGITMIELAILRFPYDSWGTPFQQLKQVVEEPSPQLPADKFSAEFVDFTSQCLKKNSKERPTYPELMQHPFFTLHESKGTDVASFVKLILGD
Sequence of STLK5 (Q7RTN6 whole entry): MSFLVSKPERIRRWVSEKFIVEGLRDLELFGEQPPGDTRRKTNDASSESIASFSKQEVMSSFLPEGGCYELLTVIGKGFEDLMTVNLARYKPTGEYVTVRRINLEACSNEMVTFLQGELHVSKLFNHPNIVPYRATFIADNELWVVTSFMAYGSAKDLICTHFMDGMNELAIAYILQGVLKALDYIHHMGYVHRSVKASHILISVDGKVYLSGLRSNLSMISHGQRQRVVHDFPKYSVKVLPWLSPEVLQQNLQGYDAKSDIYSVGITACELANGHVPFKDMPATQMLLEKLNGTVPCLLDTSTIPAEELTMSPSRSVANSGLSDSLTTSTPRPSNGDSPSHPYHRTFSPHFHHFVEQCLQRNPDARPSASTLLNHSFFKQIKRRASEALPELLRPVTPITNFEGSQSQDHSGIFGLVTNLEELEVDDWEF
Sequence of CaMK1d (Q8IU85 whole entry): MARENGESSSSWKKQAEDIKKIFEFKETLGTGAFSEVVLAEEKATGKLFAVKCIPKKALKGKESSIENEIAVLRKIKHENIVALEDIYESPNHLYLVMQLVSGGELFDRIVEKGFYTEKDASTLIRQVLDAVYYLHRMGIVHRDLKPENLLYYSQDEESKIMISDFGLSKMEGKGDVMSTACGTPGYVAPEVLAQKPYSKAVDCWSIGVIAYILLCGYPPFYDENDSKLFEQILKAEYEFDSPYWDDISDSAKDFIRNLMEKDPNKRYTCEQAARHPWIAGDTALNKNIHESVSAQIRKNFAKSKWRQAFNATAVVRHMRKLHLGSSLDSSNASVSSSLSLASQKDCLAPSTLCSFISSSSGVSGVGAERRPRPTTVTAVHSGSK
Sequence of NEK9 (Q8TD19 whole entry): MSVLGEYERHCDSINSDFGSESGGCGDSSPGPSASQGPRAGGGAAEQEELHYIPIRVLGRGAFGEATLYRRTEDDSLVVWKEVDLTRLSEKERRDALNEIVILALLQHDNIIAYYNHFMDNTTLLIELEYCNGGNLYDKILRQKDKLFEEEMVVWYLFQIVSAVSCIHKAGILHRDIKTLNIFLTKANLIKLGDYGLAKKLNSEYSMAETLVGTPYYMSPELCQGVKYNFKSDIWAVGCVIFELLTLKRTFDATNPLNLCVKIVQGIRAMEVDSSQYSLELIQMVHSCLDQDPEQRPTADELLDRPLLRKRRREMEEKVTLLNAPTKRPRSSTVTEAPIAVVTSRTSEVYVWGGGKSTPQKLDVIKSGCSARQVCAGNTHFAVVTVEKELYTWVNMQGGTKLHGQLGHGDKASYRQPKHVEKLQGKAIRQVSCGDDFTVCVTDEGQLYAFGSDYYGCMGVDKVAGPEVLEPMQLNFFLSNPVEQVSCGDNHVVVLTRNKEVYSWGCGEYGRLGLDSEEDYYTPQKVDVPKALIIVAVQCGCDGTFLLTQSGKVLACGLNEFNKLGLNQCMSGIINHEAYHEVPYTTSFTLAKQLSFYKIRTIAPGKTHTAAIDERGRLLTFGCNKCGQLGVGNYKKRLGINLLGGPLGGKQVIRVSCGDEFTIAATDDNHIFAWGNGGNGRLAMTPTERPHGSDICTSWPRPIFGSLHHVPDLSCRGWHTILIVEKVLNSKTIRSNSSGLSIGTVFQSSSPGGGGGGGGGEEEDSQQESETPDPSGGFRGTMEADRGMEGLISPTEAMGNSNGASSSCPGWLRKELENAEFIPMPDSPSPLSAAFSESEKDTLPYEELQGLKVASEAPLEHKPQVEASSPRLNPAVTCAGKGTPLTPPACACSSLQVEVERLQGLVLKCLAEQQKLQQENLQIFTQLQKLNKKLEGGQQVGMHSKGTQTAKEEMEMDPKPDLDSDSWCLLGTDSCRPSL
Sequence of NEK4 (P51957 whole entry): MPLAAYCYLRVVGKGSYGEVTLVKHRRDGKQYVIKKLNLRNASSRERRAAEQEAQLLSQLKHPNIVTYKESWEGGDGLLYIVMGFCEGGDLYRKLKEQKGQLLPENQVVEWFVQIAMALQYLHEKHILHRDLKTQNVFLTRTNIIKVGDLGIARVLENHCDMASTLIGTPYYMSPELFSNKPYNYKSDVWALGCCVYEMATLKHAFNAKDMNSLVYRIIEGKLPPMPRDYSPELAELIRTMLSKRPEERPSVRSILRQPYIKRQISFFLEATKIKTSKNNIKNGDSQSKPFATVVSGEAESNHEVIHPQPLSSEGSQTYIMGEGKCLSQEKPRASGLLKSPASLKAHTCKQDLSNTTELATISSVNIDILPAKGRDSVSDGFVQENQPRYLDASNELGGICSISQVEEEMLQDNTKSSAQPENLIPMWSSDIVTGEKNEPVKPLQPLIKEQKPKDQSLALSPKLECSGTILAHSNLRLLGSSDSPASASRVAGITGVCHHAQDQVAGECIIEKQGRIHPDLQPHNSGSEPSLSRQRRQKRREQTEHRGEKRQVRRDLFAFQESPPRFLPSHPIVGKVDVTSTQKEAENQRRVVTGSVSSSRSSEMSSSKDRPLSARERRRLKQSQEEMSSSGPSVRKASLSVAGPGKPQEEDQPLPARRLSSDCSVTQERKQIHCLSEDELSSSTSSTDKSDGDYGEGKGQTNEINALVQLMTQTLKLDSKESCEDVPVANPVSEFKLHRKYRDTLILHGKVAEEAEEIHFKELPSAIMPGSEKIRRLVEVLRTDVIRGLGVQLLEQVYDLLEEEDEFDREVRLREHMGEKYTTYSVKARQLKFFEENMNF
Sequence of KHS1 (Q9Y4K4 whole entry): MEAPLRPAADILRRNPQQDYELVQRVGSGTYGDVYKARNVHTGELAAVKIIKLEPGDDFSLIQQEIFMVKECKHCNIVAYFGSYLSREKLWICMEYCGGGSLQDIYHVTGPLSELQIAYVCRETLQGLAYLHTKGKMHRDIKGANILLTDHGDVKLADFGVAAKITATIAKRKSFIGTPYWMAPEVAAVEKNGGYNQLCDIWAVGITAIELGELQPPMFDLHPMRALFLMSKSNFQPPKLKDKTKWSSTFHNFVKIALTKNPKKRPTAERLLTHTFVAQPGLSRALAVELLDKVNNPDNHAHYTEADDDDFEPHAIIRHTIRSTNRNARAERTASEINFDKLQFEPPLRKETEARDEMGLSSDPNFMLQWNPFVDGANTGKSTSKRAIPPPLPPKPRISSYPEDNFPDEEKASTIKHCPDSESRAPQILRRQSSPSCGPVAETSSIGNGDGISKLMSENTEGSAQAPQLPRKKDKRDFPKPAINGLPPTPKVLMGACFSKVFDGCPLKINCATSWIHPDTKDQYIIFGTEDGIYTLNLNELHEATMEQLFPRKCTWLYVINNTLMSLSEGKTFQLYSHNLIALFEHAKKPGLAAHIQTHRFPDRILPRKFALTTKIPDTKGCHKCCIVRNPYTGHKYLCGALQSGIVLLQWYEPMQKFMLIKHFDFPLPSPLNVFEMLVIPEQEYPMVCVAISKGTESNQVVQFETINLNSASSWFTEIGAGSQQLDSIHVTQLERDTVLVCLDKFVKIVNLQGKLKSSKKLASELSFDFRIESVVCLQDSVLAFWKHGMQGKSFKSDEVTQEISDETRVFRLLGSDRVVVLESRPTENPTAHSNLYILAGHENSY
Sequence of CDC2 (P06493 whole entry): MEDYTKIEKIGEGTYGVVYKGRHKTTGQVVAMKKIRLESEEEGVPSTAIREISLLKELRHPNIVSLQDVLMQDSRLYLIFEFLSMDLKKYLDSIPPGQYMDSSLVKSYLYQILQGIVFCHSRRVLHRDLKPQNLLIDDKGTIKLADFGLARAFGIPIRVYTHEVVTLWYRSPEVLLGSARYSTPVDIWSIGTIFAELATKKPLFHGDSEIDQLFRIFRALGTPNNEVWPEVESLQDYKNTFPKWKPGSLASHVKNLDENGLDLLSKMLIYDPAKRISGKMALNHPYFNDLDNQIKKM

Structure (SMILES): C=CC(=O)N1CC[C@@H](Nc2nccc(Nc3ncc(C(=O)Nc4c(C)cccc4C)s3)n2)C1 [Example I-4]
- % change of MS signal compared to control sample [1]: 3.5%
- % change of MS signal compared to control sample [2]: −40.3%
- % change of MS signal compared to control sample [3]: 6.3%
- % change of MS signal compared to control sample [4]: −24.9%
- % change of MS signal compared to control sample [5]: −0.1% and 4.4%
- % change of MS signal compared to control sample [6]: −44.3%
- % change of MS signal compared to control sample [7]: 13.5%
- % change of MS signal compared to control sample [8]: 3.8%
- % change of MS signal compared to control sample [9]: 3.5%
- % change of MS signal compared to control sample [10]: −20.5%
- % change of MS signal compared to control sample [11]: −44.0%
- % change of MS signal compared to control sample [12]: 12.9%
- % change of MS signal compared to control sample [13]: 27.3%
- % change of MS signal compared to control sample [14]: −2.9% and −0.3%
- % change of MS signal compared to control sample [15]: >97%
- % change of MS signal compared to control sample [16]: 87.5%
- % change of MS signal compared to control sample [17]: −10.7%
- % change of MS signal compared to control sample [18]: 2.0% and −4.4%
- % change of MS signal compared to control sample [19]: >90%
- % change of MS signal compared to control sample [20]: 6.4%
- % change of MS signal compared to control sample [21]: −29.6%
- % change of MS signal compared to control sample [22]: 12.3%
- % change of MS signal compared to control sample [23]: −29.0%
- % change of MS signal compared to control sample [24]: 14.5%
- % change of MS signal compared to control sample [25]: −18.0% and −10.7%
- % change of MS signal compared to control sample [26]: −3.6%
- % change of MS signal compared to control sample [27]: 16.8%
- % change of MS signal compared to control sample [28]: 4.9%
- % change of MS signal compared to control sample [29]: 6.7%
- % change of MS signal compared to control sample [30]: >95%
- % change of MS signal compared to control sample [31]: −12.5% and −4.0%
- % change of MS signal compared to control sample [32]: −2.1%
- % change of MS signal compared to control sample [33]: 17.8%
- % change of MS signal compared to control sample [34]: −10.1%
- % change of MS signal compared to control sample [35]: 3.7%
- % change of MS signal compared to control sample [36]: 27.8%
- % change of MS signal compared to control sample [37]: 12.3%
- % change of MS signal compared to control sample [38]: 35.7%
- % change of MS signal compared to control sample [39]: 17.5%
- % change of MS signal compared to control sample [40]: 2.3%
